Source: patent publication US20150011751A1, “NOVEL TRIAZINE DERIVATIVE” (CARNA BIOSCIENCES, INC., priority 2012, published 2015)

How the values were obtained:
[1] = tested on: intracellular BTK (pY223) in Ramos cells; test: Inhibition of self-phosphorylation activity of intracellular BTK in IgM-stimulated Ramos cells (Western blot, Test Example 3-1); assay type: cell-based; settings: test compound 1 μM, 1 hour, IgM 10 μg/mL 10 minutes
Source text: Combinations of primary antibody and secondary antibody as well as dilute concentrations used in the present test are as follows.

[2] = tested on: intracellular BTK (pY223) in Ramos cells; test: cells; settings: Homo sapiens, read-out: BTK phosphorylation inhibitory activity
Procedure: (§1) The supernatant was recovered by a centrifugal operation (at 15,000 rpm for 15 minutes) and the amount of protein was quantitatively determined. The supernatant was mixed with SDS-sample buffer and the mixture was reacted at 95° C. for 5 minutes thereby modifying the protein to obtain a sample solution. […] Thereafter, the protein in the gel was transferred to a PVDF membrane, using an iBlot gel transfer system (Life Technologies Corporation).
(§2) The unreacted secondary antibody was washed with TBST buffer and reacted according to the attached protocol, using ECL Prime Western Blotting Detection System (GE Healthcare Ltd.), and then each band was detected by chemiluminescence using a CCD camera (ATTO, Light-CaptureII). The detected band was digitized by densitometry (ATTO CS Analyzer ver.3.0) and an inhibition ratio was calculated from the intensity of a band in each group on the assumption that luminescence of a band of phosphorylated BTK of the compound no-addition and IgM stimulated group is 100%, whereas, luminescence of a band of phosphorylated BTK of the compound no-addition and IgM non-stimulated group is 0%. Each band of phosphorylated BTK was corrected by the total BTK.
(§3) Thereafter, IgM (Invitrogen, H15100) diluted with the medium was added so that the final concentration becomes 10 μg/mL, followed by incubation at 37° C. for 10 minutes.
(§4) The intracellular BTK autophosphorylation inhibiting activity was indicated with the mark “***” when 70% or more, with the mark “**” when 50% or more and less than 70%, and with the mark “*” when 30% or more and less than 50%.

[3] = biological target: Dephosphorylated BTK (Homo sapiens, UniProt Q06187); test: Test of activity inhibition against dephosphorylated BTK (mobility shift assay)
Chain of Dephosphorylated BTK (Q06187 whole entry): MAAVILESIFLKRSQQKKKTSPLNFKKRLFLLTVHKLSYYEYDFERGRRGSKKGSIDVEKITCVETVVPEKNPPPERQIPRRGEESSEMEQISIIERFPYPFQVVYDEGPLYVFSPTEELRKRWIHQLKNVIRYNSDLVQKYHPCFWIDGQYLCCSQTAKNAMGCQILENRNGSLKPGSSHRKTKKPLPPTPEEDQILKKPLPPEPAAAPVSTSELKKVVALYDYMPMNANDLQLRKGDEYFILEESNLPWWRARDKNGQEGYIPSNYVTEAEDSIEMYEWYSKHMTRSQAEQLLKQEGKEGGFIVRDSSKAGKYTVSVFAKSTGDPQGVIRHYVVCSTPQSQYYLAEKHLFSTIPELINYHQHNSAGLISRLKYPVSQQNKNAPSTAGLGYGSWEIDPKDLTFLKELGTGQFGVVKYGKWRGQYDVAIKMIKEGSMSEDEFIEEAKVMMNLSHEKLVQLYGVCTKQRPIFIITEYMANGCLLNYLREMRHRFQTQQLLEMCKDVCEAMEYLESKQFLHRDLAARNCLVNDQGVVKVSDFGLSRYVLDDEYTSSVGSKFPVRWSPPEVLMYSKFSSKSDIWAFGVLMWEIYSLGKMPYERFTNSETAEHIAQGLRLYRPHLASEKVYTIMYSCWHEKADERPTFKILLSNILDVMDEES
Procedure: (§5) Kinase activity was measured by a mobility shift assay (MSA) method using QuickScout Screening Assist (trademark) MSA (commercially available kit, manufactured by Carna Biosciences, Inc.). FITC-labeled SRCtide peptide supplied with the kit was used as a substrate of a kinase reaction.
(§6) IC50 value was calculated by regression analysis of the inhibition ratio and the test compound concentration (logarithm).
Dephosphorylated BTK was obtained by adding a A protein phosphatase (Code No. P0753S, manufactured by New England BioLabs Inc.) and MnCl2 to a biotinylated BTK protein BTN-BTK (manufactured by Carna Biosciences, Inc.) enzyme solution so as to adjust the concentrations to 10 U/μg and 2 mM, respectively, reacting the mixture at 4° C. overnight, removing the A protein phosphatase through anti-[sequence]-tag antibody agarose gel chromatography, and performing buffer exchange using 10DG Desalting Column.

[4] = biological target: BTK (Homo sapiens, UniProt Q06187); test: Test of activity inhibition against BTK (mobility shift assay, QuickScout Screening Assist MSA)
Chain of BTK (Q06187 whole entry): as above
Procedure: as §5
The heights of the respective peaks of the isolated substrate and phosphorylated substrate were designated S and P. Those containing the assay buffer added therein in place of the enzyme solution were measured as a blank.
Inhibition ratio (%) of a test compound was calculated according to the following equation:
where A, B, and C represent P/(P+S) of a blank well, P/(P+S) of a control solution well, and P/(P+S) of a well containing the compound added therein, respectively.
as §6

[5] = tested on: intracellular BTK (pY223) in Ramos cells; settings: test compound 0.3 μM, 1 hour, IgM 10 μg/mL 10 minutes
Procedure: as §1, §2, §3, §4

| SMILES | BTK phosphorylation inhibition ratio [1] | inhibition at 0.3 µM [2] | IC50 [3] | IC50 [4] | BTK phosphorylation inhibitory activity [5] |
| --- | --- | --- | --- | --- | --- |
| COc1cc(Nc2ncnc(-c3cccc(NC(=O)c4ccc(C(C)(C)C)cc4)c3C)n2)cc(OC)c1OC [Example 1, 4-(tert-Butyl)-N-(2-methyl-3-[4-[(3,4,5-trimethoxyphenyl)amino]-1,3,5-triazin-2-yl]phenyl)benzamide] | 107% | > 70% | 2.1 nM | 10 nM |  |
| Cn1ccc(Nc2nc(N)nc(-c3cccc(N4CCc5cc(C6CC6)cc(F)c5C4=O)c3CO)n2)c1 [Example 213, 2-(3-{4-Amino-6-[(1-meth-yl-1H-pyrrol-3-yl)amino]-1,3,5-triazin-2-yl}-2-(hydroxymethyl)phenyl)-6-cyclopropyl-8-fluoro-3,4-dihydro-isoquinolin-1(2H)-one] |  | > 70% | 1.1 nM |  |  |
| Cc1c(NC(=O)c2ccc(C(C)(C)C)cc2)cccc1-c1nc(N)nc(Nc2ccc(C(=O)N3CCOC(CO)C3)cc2)n1 (stereo not shown) [Example 30, N-{3-[4-Amino-6-({4-[2-(hydroxymethyl)morpho-line-4-carbonyl]phe-nyl}amino)-1,3,5-tria-zin-2-yl]-2-methylphe-nyl}-4-(tert-butyl)benz-amide] |  | > 70% | 1.3 nM |  |  |
| CN(C)CCCOc1ccc(Nc2nc(N)nc(-c3cccc(NC(=O)c4ccc(C(C)(C)C)cc4)c3CO)n2)cc1 [Example 70, N-{3-[4-Amino-6-({4-[3-(dimethylamino)prop-oxy]phenyl}amino)-1,3,5-triazin-2-yl]-2-(hydroxy-methyl)phenyl}-4-(tert-butyl)benzamide] |  | > 70% | 1 nM |  |  |
| Cc1c(NC(=O)c2ccc(C(C)(C)C)cc2)cccc1-c1ncnc(Nc2ccc(C(=O)N3CCN(CCO)CC3)cc2)n1 [Example 10, 4-(tert-Butyl)-N-{3-[4-({4-[4-(2-hydroxyeth-yl)piperazine-1-carbo-nyl]phenyl}amino)-1,3,5-triazin-2-yl]-2-meth-ylphenyl}benzamide] |  |  | 3.2 nM | 12.8 nM |  |
| Cc1c(-c2nc(N)nc(Nc3ccc(C(=O)N4CCOCC4)cc3)n2)cccc1N1Cc2cc(C(C)(C)C)ccc2C1=O [Example 33, 2-[3-(4-Amino-6-{[4-(morpholine-4-carbonyl)phenyl]amino}-1,3,5-triazin-2-yl)-2-methylphenyl]-5-(tert-butyl)isoindolin-1-one] |  | > 70% |  |  |  |
| Cc1c(NC(=O)c2ccc(C(C)(C)C)cc2)cccc1-c1ncnc(Nc2ccc(C(=O)N3CCN(C)CC3)cc2)n1 [Example 4, 4-(tert-Butyl)-N-[2-methyl-3-(4-{[4-(4-methylpiperazine-1-carbonyl)phenyl]amino}-1,3,5-triazin-2-yl)phenyl]benzamide] |  |  | 4.2 nM | 10 nM |  |
| Cc1c(NC(=O)c2ccc(C(C)(C)C)cc2)cccc1-c1nc(N)nc(Nc2ccc(C(=O)N3CCOCC3CO)cc2)n1 (stereo not shown) [Example 31, N-{3-[4-Amino-6-({4-[3-(hydroxymethyl)morpho-line-4-carbonyl]phe-nyl}amino)-1,3,5-tria-zin-2-yl]-2-methylphe-nyl}-4-(tert-butyl) benzamide] |  | > 70% | 1.5 nM |  |  |
| Cc1c(NC(=O)c2ccc(C(C)(C)C)cc2)cccc1-c1ncnc(Nc2ccc(C(=O)NCCN3CCOCC3)cc2)n1 [Example 8, 4-(tert-Butyl)-N-{2-meth-yl-3-[4-({4-[(2-morpho-linoethyl)carbamoyl]phenyl}amino)-1,3,5-triazin-2-yl]phenyl} benzamide] |  |  | 3.5 nM | 13.1 nM |  |
| Cn1cc(Nc2nc(N)nc(-c3cccc(N4CCc5cc(C6CC6)cc(F)c5C4=O)c3CO)n2)cn1 [Example 180, 2-(3-{4-Amino-6-[(1-methyl-1H-pyrazol-4-yl)amino]-1,3,5-triazin-2-yl}-2-(hydroxymeth-yl)phenyl)-6-cyclopro-pyl-8-fluoro-3,4-dihy-droisoquinolin-1(2H)-one] |  | > 70% | 0.7 nM |  |  |
| Cc1c(NC(=O)c2ccc(C(C)(C)C)cc2)cccc1-c1nc(N)nc(Nc2ccc(C(=O)N3CCOC(CN)C3)cc2)n1 (stereo not shown) [Example 32, N-{3-[4-Amino-6-({4-[2-(aminomethyl)morpho-line-4-carbonyl]phenyl}amino)-1,3,5-triazin-2-yl]-2-methylphenyl}-4-(tert-butyl)benz-amide] |  | > 70% | 0.8 nM |  |  |
| Cc1c(NC(=O)c2ccc(C(C)(C)C)cc2)cccc1-c1ncnc(Nc2ccc(C(=O)N3CCC(O)CC3)cc2)n1 [Example 9, 4-(tert-Butyl)-N-[3-(4-{[4-(4-hydroxypiper-idine-1-carbonyl)phenyl]amino}-1,3,5-triazin-2-yl)-2-methylphen-yl]benzamide] |  |  | 2.1 nM | 12.6 nM |  |
| Nc1nc(Nc2cnn(CC3CC3)c2)nc(-c2cccc(N3CCc4cc(C5CC5)cc(F)c4C3=O)c2CO)n1 [Example 214, 2-[3-(4-Amino-6-{[1-(cyclo-propylmethyl)-1H-pyrazol-4-yl]amino}-1,3,5-triazin-2-yl)-2-(hydroxymethyl)phenyl]-6-cyclopropyl-8-fluoro-3,4-dihydroisoquinolin-1(2H)-one] |  | > 70% | 0.3 nM |  |  |
| Cc1c(NC(=O)c2ccc(C(C)(C)C)cc2)cccc1-c1ncnc(Nc2ccc(C(=O)N3CCOC(CN)C3)cc2)n1 (stereo not shown) [Example 7, N-{3-[4-({4-[2-(Amino-methyl)morpholine-4-car-bonyl]phenyl}amino)-1,3,5-triazin-2-yl]-2-methylphenyl}-4-(tert-butyl)benzamide] |  |  | 2.5 nM | 8.2 nM |  |
| CC(C)(C)c1ccc(C(=O)Nc2cccc(-c3nc(N)nc(Nc4ccc(C[C@H]5COC(=O)N5)cc4)n3)c2CO)cc1 [Example 203, N-{3-[4-Amino-6-({4-[(2-oxooxazolidin-4-yl)methyl]phenyl}amino)-1,3,5-triazin-2-yl]-2-(hydroxymethyl)phe-nyl}-4-(tert-butyl) benzamide] |  |  | 0.4 nM |  |  |
| Nc1nc(Nc2ccc(N3CCOCC3)cc2)nc(-c2cccc(N3CCc4cc(C5CC5)cc(F)c4C3=O)c2CO)n1 [Example 44, 2-(3-{4-Amino-6-[(4-morpholinophenyl)amino]-1,3,5-triazin-2-yl}-2-(hydroxymethyl)phenyl)-6-cycropropyl-8-fluoro-3,4-dihydroisoquinolin-1(2H)-one] |  |  |  |  | *** (70% or more) |
